Assay results published in the NIST ThermoML archive (doi:10.1021/je300958c).

Assay: relative permittivity at zero frequency (dimensionless)
Conditions: 101.33 kPa, Liquid, impedance/gain phase analyzer

N#CCCCCC#N [hexanedinitrile]
Conditions | relative permittivity at zero frequency
278.15 K | 34.7
280.65 K | 34.35
283.15 K | 34.01
285.65 K | 33.67
288.15 K | 33.36
290.65 K | 33.04
293.15 K | 32.73
295.65 K | 32.41
298.15 K | 32.12
300.65 K | 31.83
303.15 K | 31.53
305.65 K | 31.26
308.15 K | 30.96
310.65 K | 30.67
313.15 K | 30.38
315.65 K | 30.09
318.15 K | 29.8
320.65 K | 29.5
323.15 K | 29.22
325.65 K | 28.94
328.15 K | 28.69
330.65 K | 28.46
333.15 K | 28.21
335.65 K | 27.98
338.15 K | 27.73
340.65 K | 27.52
343.15 K | 27.3
345.65 K | 27.09
348.15 K | 26.83
350.65 K | 26.6
353.15 K | 26.4

N#CCCCC#N [pentanedinitrile]
Conditions | relative permittivity at zero frequency
248.15 K | 40.78
250.65 K | 40.45
253.15 K | 40.08
255.65 K | 39.78
258.15 K | 39.42
260.65 K | 39.08
263.15 K | 38.74
265.65 K | 38.4
268.15 K | 38.1
270.65 K | 37.78
273.15 K | 37.44
275.65 K | 37.16
278.15 K | 36.83
280.65 K | 36.56
283.15 K | 36.27
285.65 K | 35.97
288.15 K | 35.71
290.65 K | 35.41
293.15 K | 35.14
295.65 K | 34.87
298.15 K | 34.6
300.65 K | 34.33
303.15 K | 34.04
305.65 K | 33.83
308.15 K | 33.59
310.65 K | 33.35
313.15 K | 33.13
315.65 K | 32.87
318.15 K | 32.67
320.65 K | 32.44
323.15 K | 32.21

N#CCCCCCC#N [heptanedinitrile]
Conditions | relative permittivity at zero frequency
248.15 K | 36.21
250.65 K | 35.82
253.15 K | 35.44
255.65 K | 35.06
258.15 K | 34.7
260.65 K | 34.35
263.15 K | 33.99
265.65 K | 33.65
268.15 K | 33.31
270.65 K | 32.98
273.15 K | 32.66
275.65 K | 32.36
278.15 K | 32.04
280.65 K | 31.73
283.15 K | 31.43
285.65 K | 31.14
288.15 K | 30.86
290.65 K | 30.57
293.15 K | 30.28
295.65 K | 30
298.15 K | 29.71
300.65 K | 29.45
303.15 K | 29.18
305.65 K | 28.92
308.15 K | 28.67
310.65 K | 28.42
313.15 K | 28.17
315.65 K | 27.94
318.15 K | 27.68
320.65 K | 27.46
323.15 K | 27.23
325.65 K | 27
328.15 K | 26.77
330.65 K | 26.56
333.15 K | 26.32

N#CCCC#N [butanedinitrile]
Conditions | relative permittivity at zero frequency
333.15 K | 56.09
335.65 K | 55.46
338.15 K | 54.85
340.65 K | 54.29
343.15 K | 53.68
345.65 K | 53.11
348.15 K | 52.52
350.65 K | 51.95
353.15 K | 51.36
355.65 K | 50.81
358.15 K | 50.28
360.65 K | 49.73
363.15 K | 49.18
365.65 K | 48.66
368.15 K | 48.14
370.65 K | 47.63
373.15 K | 47.11

N#CCCCCCCC#N [octanedinitrile]
Conditions | relative permittivity at zero frequency
273.15 K | 28.23
275.65 K | 28
278.15 K | 27.77
280.65 K | 27.52
283.15 K | 27.29
285.65 K | 27.06
288.15 K | 26.82
290.65 K | 26.6
293.15 K | 26.36
295.65 K | 26.16
298.15 K | 25.94
300.65 K | 25.75
303.15 K | 25.55
305.65 K | 25.32
308.15 K | 25.11
310.65 K | 24.94
313.15 K | 24.74
315.65 K | 24.55
318.15 K | 24.37
320.65 K | 24.2
323.15 K | 24
325.65 K | 23.8
328.15 K | 23.63
330.65 K | 23.47
333.15 K | 23.3
